In US9695155B2, “Herbicidal substituted pyrimidinyloxy benzene compounds” (E. I. DU PONT DE NEMOURS AND COMPANY, priority 2013, dated 2017):

What was measured:
rice = assay: Test B flooded paddy test; assay type: in vivo, Oryza sativa; details: Flood, 250 g ai/ha; 0 to 100 scale where 0 is no effect and 100 is complete control
Procedure, shortened: (§1)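 2-leaf stage plants; pots flooded to 3 cm, compound added to paddy water, depth maintained. Greenhouse 13–15 d. Visual rating vs untreated controls, 0 (no effect) to 100 (complete control); dash = no result.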

barnyardgrass [1] = assay: Test A postemergence; assay type: in vivo, Echinochloa crus-galli; details: for Plant response rating, Barnyardgrass: 0 to 100 scale, 0 no effect, 100 complete control
Procedure, shortened: (§2)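 Scoring: eye-based comparison with untreated controls, 0 for no effect through 100 for complete control, at about day 10. Treatments: directed soil spray preemergence; foliar spray postemergence on 2–10 cm plants at the one- to two-leaf stage. Medium: loam soil with sand.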

sedge, umbrella = assay: Test B flooded paddy test; assay type: in vivo, Cyperus difformis; details: Flood, 250 g ai/ha; 0 to 100 scale where 0 is no effect and 100 is complete control
Procedure, shortened: as §1

pigweed [2] = assay: Test A postemergence; assay type: in vivo, Amaranthus retroflexus; details: for Plant response rating, Pigweed: 0 to 100 scale, 0 no effect, 100 complete control
Procedure, shortened: as §2

giant foxtail [3] = assay: Test A preemergence; assay type: in vivo, Setaria faberii; details: for Plant response rating, Foxtail, Giant: 0 to 100 scale where 0 is no effect and 100 is complete control
Procedure, shortened: as §2

corn = assay: Test A postemergence; assay type: in vivo, Zea mays; details: for Plant response rating, Corn: 0 to 100 scale, 0 no effect, 100 complete control
Procedure, shortened: as §2

giant foxtail [4] = assay: Test A postemergence; assay type: in vivo, Setaria faberii; details: for Plant response rating, Foxtail, Giant: 0 to 100 scale, 0 no effect, 100 complete control
Procedure, shortened: as §2

Italian ryegrass [5] = assay: Test A postemergence; assay type: in vivo, Lolium multiflorum; details: for Plant response rating, Ryegrass, Italian: 0 to 100 scale, 0 no effect, 100 complete control
Procedure, shortened: as §2

Italian ryegrass [6] = assay: Test A preemergence; assay type: in vivo, Lolium multiflorum; details: for Plant response rating, Ryegrass, Italian: 0 to 100 scale where 0 is no effect and 100 is complete control
Procedure, shortened: as §2

pigweed [7] = assay: Test A preemergence; assay type: in vivo, Amaranthus retroflexus; details: for Plant response rating, Pigweed: 0 to 100 scale where 0 is no effect and 100 is complete control
Procedure, shortened: as §2

ragweed [8] = assay: Test A postemergence; assay type: in vivo, Ambrosia elatior; details: for Plant response rating, Ragweed: 0 to 100 scale, 0 no effect, 100 complete control
Procedure, shortened: as §2

barnyardgrass [9] = assay: Test B flooded paddy test; assay type: in vivo, Echinochloa crus-galli; details: Flood, 250 g ai/ha; 0 to 100 scale where 0 is no effect and 100 is complete control
Procedure, shortened: as §1

galium = assay: Test A postemergence; assay type: in vivo, Galium aparine; details: for Plant response rating, Galium: 0 to 100 scale, 0 no effect, 100 complete control
Procedure, shortened: as §2

blackgrass = assay: Test A postemergence; assay type: in vivo, Alopecurus myosuroides; details: for Plant response rating, Blackgrass: 0 to 100 scale, 0 no effect, 100 complete control
Procedure, shortened: as §2

kochia [10] = assay: Test A postemergence; assay type: in vivo, Kochia scoparia; details: for Plant response rating, Kochia: 0 to 100 scale, 0 no effect, 100 complete control
Procedure, shortened: as §2

wheat = assay: Test A postemergence; assay type: in vivo, Triticum aestivum; details: for Plant response rating, Wheat: 0 to 100 scale, 0 no effect, 100 complete control
Procedure, shortened: as §2

Heteranthera limosa = assay: Test B flooded paddy test; assay type: in vivo; details: Flood, 250 g ai/ha; 0 to 100 scale where 0 is no effect and 100 is complete control
Procedure, shortened: as §1

ragweed [11] = assay: Test A preemergence; assay type: in vivo, Ambrosia elatior; details: for Plant response rating, Ragweed: 0 to 100 scale where 0 is no effect and 100 is complete control
Procedure, shortened: as §2

barnyardgrass [12] = assay: Test A preemergence; assay type: in vivo, Echinochloa crus-galli; details: for Plant response rating, Barnyardgrass: 0 to 100 scale where 0 is no effect and 100 is complete control
Procedure, shortened: as §2

kochia [13] = assay: Test A preemergence; assay type: in vivo, Kochia scoparia; details: for Plant response rating, Kochia: 0 to 100 scale where 0 is no effect and 100 is complete control
Procedure, shortened: as §2

[14] = 31 g ai/ha, visual, approximately 10 days
[15] = 125 g ai/ha, 0 to 100 scale where 0 is no effect and 100 is complete control

SMILES | Plant response rating, Rice (rice) | Plant response rating, Barnyardgrass (barnyardgrass [1]; 31 g ai/ha) | Plant response rating, Barnyardgrass (barnyardgrass [1]; 125 g ai/ha) | Plant response rating, Sedge, Umbrella (sedge, umbrella) | Plant response rating, Pigweed (pigweed [2]; 31 g ai/ha) | Plant response rating, Foxtail, Giant (giant foxtail [3]; [14]) | Plant response rating, Corn (corn; 31 g ai/ha) | Plant response rating, Foxtail, Giant (giant foxtail [4]; 31 g ai/ha) | Plant response rating, Ryegrass, Italian (Italian ryegrass [5]; 31 g ai/ha) | Plant response rating, Ryegrass, Italian (Italian ryegrass [6]; [14]) | Plant response rating, Pigweed (pigweed [7]; [14]) | Plant response rating, Ragweed (ragweed [8]; 31 g ai/ha) | Plant response rating, Barnyardgrass (barnyardgrass [9]) | Plant response rating, Galium (galium; 31 g ai/ha) | Plant response rating, Blackgrass (blackgrass; 31 g ai/ha) | Plant response rating, Kochia (kochia [10]; 31 g ai/ha) | Plant response rating, Wheat (wheat; 31 g ai/ha) | Plant response rating, Ducksalad (Heteranthera limosa) | Plant response rating, Barnyardgrass (barnyardgrass [12]; [14]) | Plant response rating, Kochia (kochia [13]; [14]) | also measured
Fc1cccc(Oc2ncc(Cl)cn2)c1-n1cc(OC(F)F)cn1 [Compound 271] | 0 | 10 | 80 | 60 | 70 | 40 | 20 | 10 | 0 | 0 | 90 | 0 | 0 | 70 | 10 | 70 | 0 | 90 | 20 | 70 | Plant response rating, Pigweed (pigweed [2]; 125 g ai/ha): 100; Foxtail, Giant plant response rating (0 to 100 scale) (giant foxtail [3]; 125 g ai/ha): 100; Plant response rating, Corn (corn; 125 g ai/ha): 30; Plant response rating, Foxtail, Giant (giant foxtail [4]; 125 g ai/ha): 90; Plant response rating, Ryegrass, Italian (Italian ryegrass [5]; 125 g ai/ha): 30; Ryegrass, Italian plant response rating (0 to 100 scale) (Italian ryegrass [6]; 125 g ai/ha): 10; Pigweed plant response rating (0 to 100 scale) (pigweed [7]; 125 g ai/ha): 100; Plant response rating, Ragweed (ragweed [8]; 125 g ai/ha): 80; Plant response rating, Galium (galium; 125 g ai/ha): 100; Plant response rating, Blackgrass (blackgrass; 125 g ai/ha): 80; Plant response rating, Kochia (kochia [10]; 125 g ai/ha): 100; Plant response rating, Wheat (wheat; 125 g ai/ha): 40; Plant response rating, Ragweed (ragweed [11]; [14]): 0; Ragweed plant response rating (0 to 100 scale) (ragweed [11]; 125 g ai/ha): 20; Barnyardgrass plant response rating (0 to 100 scale, 0 is no effect, 100 is complete control) (barnyardgrass [12]; 125 g ai/ha): 100; Kochia plant response rating (0 to 100 scale) (kochia [13]; 125 g ai/ha): 100
Fc1cnc(Oc2ccccc2-n2cc(SC(F)(F)F)cn2)nc1 [Compound 247] | 0 | 0 | 20 | 50 | 10 | 0 | 0 | 0 | 0 | 0 | 0 | 0 | 0 | 10 | 0 | 20 | 0 | 65 | 0 | 0 | Plant response rating, Pigweed (pigweed [2]; 125 g ai/ha): 20; Foxtail, Giant plant response rating (0 to 100 scale) (giant foxtail [3]; 125 g ai/ha): 100; Plant response rating, Corn (corn; 125 g ai/ha): 20; Plant response rating, Foxtail, Giant (giant foxtail [4]; 125 g ai/ha): 10; Plant response rating, Ryegrass, Italian (Italian ryegrass [5]; 125 g ai/ha): 0; Ryegrass, Italian plant response rating (0 to 100 scale) (Italian ryegrass [6]; 125 g ai/ha): 0; Pigweed plant response rating (0 to 100 scale) (pigweed [7]; 125 g ai/ha): 80; Plant response rating, Ragweed (ragweed [8]; 125 g ai/ha): 0; Plant response rating, Galium (galium; 125 g ai/ha): 30; Plant response rating, Blackgrass (blackgrass; 125 g ai/ha): 40; Plant response rating, Kochia (kochia [10]; 125 g ai/ha): 40; Plant response rating, Wheat (wheat; 125 g ai/ha): 20; Plant response rating, Ragweed (ragweed [11]; [14]): 0; Ragweed plant response rating (0 to 100 scale) (ragweed [11]; 125 g ai/ha): 0; Barnyardgrass plant response rating (0 to 100 scale, 0 is no effect, 100 is complete control) (barnyardgrass [12]; 125 g ai/ha): 70; Kochia plant response rating (0 to 100 scale) (kochia [13]; 125 g ai/ha): 60
FCc1cccc(Oc2ncc(F)cn2)c1-n1cc(Cl)cn1 [Compound 249] | 0 | 0 | 60 | 60 | 60 | 0 | 0 | 0 | 0 | 0 | 90 | 10 | 0 | 20 | 60 | 20 | 0 | 70 | 0 | 0 | Plant response rating, Pigweed (pigweed [2]; 125 g ai/ha): 100; Foxtail, Giant plant response rating (0 to 100 scale) (giant foxtail [3]; 125 g ai/ha): 0; Plant response rating, Corn (corn; 125 g ai/ha): 10; Plant response rating, Foxtail, Giant (giant foxtail [4]; 125 g ai/ha): 60; Plant response rating, Ryegrass, Italian (Italian ryegrass [5]; 125 g ai/ha): 0; Ryegrass, Italian plant response rating (0 to 100 scale) (Italian ryegrass [6]; 125 g ai/ha): 30; Pigweed plant response rating (0 to 100 scale) (pigweed [7]; 125 g ai/ha): 90; Plant response rating, Ragweed (ragweed [8]; 125 g ai/ha): 70; Plant response rating, Galium (galium; 125 g ai/ha): 30; Plant response rating, Blackgrass (blackgrass; 125 g ai/ha): 80; Plant response rating, Kochia (kochia [10]; 125 g ai/ha): 80; Plant response rating, Wheat (wheat; 125 g ai/ha): 0; Plant response rating, Ragweed (ragweed [11]; [14]): 0; Ragweed plant response rating (0 to 100 scale) (ragweed [11]; 125 g ai/ha): 0; Barnyardgrass plant response rating (0 to 100 scale, 0 is no effect, 100 is complete control) (barnyardgrass [12]; 125 g ai/ha): 0; Kochia plant response rating (0 to 100 scale) (kochia [13]; 125 g ai/ha): 40
Fc1cnc(Oc2cccc(Br)c2-n2cc(OCC(F)(F)F)cn2)nc1 [Compound 157] | 35 | 10 | – | 75 | 90 | 70 | 0 | 10 | 0 | 0 | 90 | 20 | 35 | 60 | 30 | 60 | 0 | 80 | 20 | 60 | Barnyardgrass plant response rating (barnyardgrass [1]; [15]): 80; Pigweed plant response rating (pigweed [2]; [15]): 100; Plant response rating, Foxtail, Giant (giant foxtail [3]; 125 g ai/ha): 100; Corn plant response rating (corn; [15]): 40; Foxtail, Giant plant response rating (giant foxtail [4]; [15]): 80; Ryegrass, Italian plant response rating (Italian ryegrass [5]; [15]): 20; Plant response rating, Ryegrass, Italian (Italian ryegrass [6]; 125 g ai/ha): 0; Plant response rating, Pigweed (pigweed [7]; 125 g ai/ha): 90; Ragweed plant response rating (ragweed [8]; [15]): 50; Galium plant response rating (galium; [15]): 90; Blackgrass plant response rating (blackgrass; [15]): 50; Kochia plant response rating (kochia [10]; [15]): 100; Wheat plant response rating (wheat; [15]): 0; Plant response rating, Ragweed (ragweed [11]; 125 g ai/ha): 30; Plant response rating, Barnyardgrass (barnyardgrass [12]; 125 g ai/ha): 80; Plant response rating, Kochia (kochia [13]; 125 g ai/ha): 90
